From PubChem BioAssay (NCI)
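Briefly, cells in 96-well plates were exposed to five compound concentrations for 48 h, and endpoints were estimated by linear interpolation. TGI denotes the concentration required for complete inhibition of growth.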

Key:
Assay in all cases: DTP human tumour cell line panel, 48 h
[1] = tested on: M19-MEL melanoma
[2] = tested on: SK-MEL-2 melanoma
[3] = tested on: SK-OV-3 ovarian
[4] = tested on: HCT-116 colon
[5] = tested on: U251 CNS
[6] = tested on: M14 melanoma
[7] = tested on: UO-31 renal
[8] = tested on: HL-60(TB) leukemia
[9] = tested on: SF-268 CNS
[10] = tested on: SNB-75 CNS
[11] = tested on: TK-10 renal
[12] = tested on: SR leukemia
[13] = tested on: OVCAR-8 ovarian
[14] = tested on: NCI-H522 lung
[15] = tested on: A549 NSCLC
[16] = tested on: HOP-92 NSCLC
[17] = tested on: COLO 205 colon
[18] = tested on: SW-620 colon
[19] = tested on: SN12C renal
[20] = tested on: MALME-3M melanoma
[21] = tested on: SK-MEL-5 melanoma
[22] = tested on: CCRF-CEM leukemia
[23] = tested on: RPMI-8226 leukemia
[24] = tested on: UACC-62 melanoma
[25] = tested on: RXF 393 renal
[26] = tested on: SF-295 CNS
[27] = tested on: LXFL 529 NSCLC
[28] = tested on: SNB-19 CNS
[29] = tested on: IGROV1 ovarian
[30] = tested on: SK-MEL-28 melanoma
[31] = tested on: OVCAR-3 ovarian
[32] = tested on: HT29 colon
[33] = tested on: XF 498 CNS
[34] = tested on: K-562 leukemia
[35] = tested on: KM12 colon
[36] = tested on: OVCAR-4 ovarian
[37] = tested on: OVCAR-5 ovarian
[38] = tested on: NCI-H460 lung
[39] = tested on: HOP-62 NSCLC
[40] = tested on: DMS 114 small cell lung
[41] = tested on: UACC-257 melanoma
[42] = tested on: SF-539 CNS
[43] = tested on: KM20L2 colon
[44] = tested on: MOLT-4 leukemia
[45] = tested on: NCI-H23 lung
[46] = tested on: EKVX NSCLC
[47] = tested on: HCC-2998 colon
[48] = tested on: A498 renal
[49] = tested on: HCT-15 colon
[50] = tested on: 786-0 renal
[51] = tested on: CAKI-1 renal
[52] = tested on: SNB-78 CNS
[53] = tested on: NCI-H226 lung
[54] = tested on: DLD-1 colon
[55] = tested on: LOX IMVI melanoma
[56] = tested on: ACHN renal
[57] = tested on: DMS 273 small cell lung

O=C(NN1C(=O)C(Cl)C1c1cccc([N+](=O)[O-])c1)c1ccccc1O (centres undefined) was tested, and the TGI [1] was > 100 µM, the TGI [2] was > 100 µM and the TGI [3] was > 100 µM. For the same molecule, the TGI [4] was > 100 µM, the TGI [5] was > 100 µM and the TGI [6] was > 100 µM. The TGI [7] was > 100 µM, the TGI [8] was > 100 µM and the TGI [9] was > 100 µM. For the same molecule, the TGI [10] was > 100 µM, the TGI [11] was > 100 µM and the TGI [12] was > 100 µM. The TGI [13] was > 100 µM, the TGI [14] was > 100 µM and the TGI [15] was > 100 µM. The TGI [16] was > 100 µM, the TGI [17] was > 100 µM and the TGI [18] was > 100 µM. The TGI [19] was > 100 µM, the TGI [20] was > 100 µM and the TGI [21] was > 100 µM. The TGI [22] was > 100 µM, the TGI [23] was > 100 µM and the TGI [24] was > 100 µM. The TGI [25] was > 100 µM, the TGI [26] was > 100 µM and the TGI [27] was > 100 µM. The TGI [28] was > 100 µM, the TGI [29] was > 100 µM and the TGI [30] was > 100 µM. For the same molecule, the TGI [31] was > 100 µM, the TGI [32] was > 100 µM and the TGI [33] was > 100 µM. For the same molecule, the TGI [34] was > 100 µM, the TGI [35] was > 100 µM and the TGI [36] was > 100 µM. For the same molecule, the TGI [37] was > 100 µM, the TGI [38] was > 100 µM and the TGI [39] was > 100 µM. For the same molecule, the TGI [40] was > 100 µM, the TGI [41] was > 100 µM and the TGI [42] was > 100 µM. For the same molecule, the TGI [43] was > 100 µM, the TGI [44] was > 100 µM and the TGI [45] was > 100 µM. The TGI [46] was > 100 µM.

Clc1ccccc1CN1COc2c(ccc3cccnc23)C1 was tested, and the TGI [1] was 15.1 µM, the TGI [47] was 19.6 µM and the TGI [48] was 22.1 µM. The TGI [2] was 6.63 µM, the TGI [3] was 19.9 µM and the TGI [4] was 9.66 µM. The TGI [5] was 19.1 µM, the TGI [6] was 10.8 µM and the TGI [7] was 7.2 µM. The TGI [8] was 4.33 µM, the TGI [9] was 13.5 µM and the TGI [49] was 14.8 µM. For the same molecule, the TGI [10] was 21.1 µM, the TGI [11] was 23.2 µM and the TGI [13] was 15.3 µM. For the same molecule, the TGI [14] was 4.53 µM, the TGI [15] was 14.2 µM and the TGI [16] was 7.6 µM. The TGI [17] was 24.8 µM, the TGI [18] was 12.4 µM and the TGI [19] was 23.2 µM. The TGI [20] was 16.3 µM, the TGI [21] was 8.93 µM and the TGI [50] was 14.8 µM. For the same molecule, the TGI [22] was 1.74 µM, the TGI [51] was 12.8 µM and the TGI [23] was 7.15 µM. For the same molecule, the TGI [24] was 8.56 µM, the TGI [26] was 10.6 µM and the TGI [28] was > 100 µM. For the same molecule, the TGI [29] was 11.6 µM, the TGI [52] was 14 µM and the TGI [30] was 14.9 µM. It also gave a TGI [31] of 11.2 µM, a TGI [33] of 22.4 µM and a TGI [34] of 4.51 µM. It also gave a TGI [35] of 18.1 µM, a TGI [36] of 14.6 µM and a TGI [53] of 19.4 µM. For the same molecule, the TGI [37] was 22.8 µM, the TGI [54] was 17.5 µM and the TGI [38] was 20.8 µM. The TGI [55] was 22.5 µM, the TGI [56] was 13.2 µM and the TGI [39] was 7.25 µM. The TGI [40] was 6.19 µM, the TGI [57] was 11.1 µM and the TGI [41] was 8.2 µM. It also gave a TGI [42] of 11.7 µM, a TGI [43] of 35.9 µM and a TGI [44] of 6.77 µM. For the same molecule, the TGI [45] was 5.34 µM and the TGI [46] was 15.9 µM.
